Results from patent US20260174786A1, “A NITROGEN-CONTAINING SPIROCYCLIC COMPOUND, PHARMACEUTICAL COMPOSITION AND USE THEREOF” (Prime Gene Therapeutics Co., Ltd., priority 2022, published 2026).

Experiments:
[1] = Pharmacokinetic experiments in male SD rats; format: in vivo, rat
Description: Male SD rats were grouped in groups of 3 rats each and orally administered with the compound of Example (10 mg/kg) and intravenously injected with the compound of Example (2 mg/kg). Animals were fasted overnight before the experiment, from 10 hours before administration to 4 hours after administration. Blood samples were collected at 0.25, 0.5, 1, 2, 4, 8, and 24 hours after administration in the oral group, and at 0.083, 0.25, 0.5, 1, 2, 4, 8, and 24 hours after injection in the intravenous group. After anesthesia with isoflurane using a small animal anesthesia machine, 0.3 mL of whole blood was collected through the retinal venous plexus, and placed in a heparin anticoagulant tube. The sample was centrifuged at 4° C. and 4000 rpm for 5 minutes, and the plasma was transferred to the centrifuge tube and stored at −80° C. until analysis. The plasma samples were extracted using protein precipitation method, and the extract was analyzed by LC-MS/MS.

[2] = Stability assessment of compounds at room temperature under 92.5% humidity (LC-MS); format: physicochemical; conditions: 92.5% humidity
Description: Taking the compound of Example 21 and KM-001-E1 in WO2021154966A1 as examples, the stability thereof was compared:
Compound of Example 21 and KM-001-E1 were accurately weighed and placed in penicillin bottles, and placed at room temperature under 92.5% humidity (open) conditions for 5-10 days to investigate the stability of the compounds.
• instrument: Thermo U3000-ISQEC • column: Xtimate UHPLC C18 1.8 μm 4.6*50 mm • Column temperature: 35° C. • wavelength: 210 nm, 254 nm • mobile phase A: 0.05% formic acid aqueous solution; mobile phase B: 0.05% formic acid acetonitrile; gradient: 30% B 0-1.2 min, 95% B 1.2-3.3 min, 30% B 3.3-4.5 min;
Analyzing the degradation impurities of each compound under 92.5% humidity conditions using LC-MS: The main impurities in Example 21 had m/z 427.17, with a retention time of 2.55 minutes. After being left for 10 days, the peak area proportion was only 0.3%; The main impurities in KM-001-E1 has m/z=431.14 and m/z=415.16, with retention times of 2.31 minutes and 2.64 minutes, respectively. […] Based on LC-MS and NMR data analysis, it can be inferred that the main impurities produced in Example 21 are ketones, while the main impurities produced in KM-001-E1 are aldehydes and carboxylic acids.

[3] = male, SD, rat, plasma, intravenous, 2 mg/kg
[4] = male, SD, rat, plasma, po, gavage, 10 mg/kg

Row | F ([1]; gavage, 10 mg/kg) | AUC(0-inf) [1, 3] | C0 [1, 3] | clearance [1, 3] | half-life [1, 3] | Vd ([1]; male, SD, rat, plasma, intravenous, 2 mg/kg, read-out: Vss) | AUC(0-inf) [1, 4] | Cmax [1, 4] | Tmax [1, 4] | half-life [1, 4] | SMILES | stability compared with KM-001-E1 / compounds of WO2021154966A1 [2]
1 | 80.6% | 10500 ng·h/mL | 4060 ng/mL | 3.3 mL/min/kg | 1.63 h | 0.41 L/kg | 42200 ng·h/mL | 8050 ng/mL | 1.33 h | 1.88 h | O=C(c1ccc(F)cn1)N1CCC2(CC(O)c3cc(-c4ccccc4C4CC4)ccc32)C1 (centres unmarked) [Example 15, (5-(2-cyclopropylphenyl)-3-hydroxy-2,3-dihydrospiro[indene-1,3′-pyrrolidine]-1′-yl)(5-fluoropyridin-2-yl) ketone] | –
2 | – | – | – | – | – | – | – | – | – | – | O=C(c1ccc(F)cn1)N1CC[C@@]2(C[C@@H](O)c3cc(-c4ccccc4C4CC4)ccc32)C1 [Example 21, ((1S,3R)-5-(2-cyclopropylphenyl)-3-hydroxy-2,3-dihydrospiro[indene-1,3′-pyrrolidine]-1′-yl)(5-fluoropyridin-2-yl)ketone] | better chemical stability than the primary alcohol compound in WO2021154966A1
